Measured values as given in paper PMC10218704, “A Novel Blood–Brain Barrier-Penetrating and Vascular-Targeting Chimeric Peptide Inhibits Glioma Angiogenesis” (International Journal of Molecular Sciences, 2023).

Key:
VEGFR-2 = format: binding, human; details: peptide 256 and 1000 nmol/L; VEGF-A165 0.5-8 nmol/L; CM5 chip; HBS-EP
Protocol: To determine the effect of TAT-AT7 in competition with VEGF-A165 binding to VEGFR-2 or NRP-1, the SPR assay was conducted. The whole operation was conducted on a Biacore S200 instrument. The recombinant VEGFR-2 or NRP-1 proteins were firstly immobilized on a CM5 chip by an amine-coupling reaction. VEGF-A165 ligands with gradient concentrations in the absence or presence of different peptides were then flowed over the CM5 chip. The binding of VEGF-A165 ligands to the immobilized recombinant VEGFR-2 or NRP-1 proteins led to an increase of the refractive index on the surface of the chip, which could be converted into the fluctuation of electrical signals in the response (RU). As the concentration of VEGF-A165 was higher, the response value was also higher. However, with the addition of different peptides, the response value decreased to different degrees (Figure 3A and Figure 4A).
(TAT), ATWLPPR (AT7), and […] (TAT-AT7) were synthesized from China Peptides Co., Ltd. (Shanghai, China). The Hoechst 33,258 staining kit, Annexin V-FITC/PI apoptosis detection kit, and BCA protein assay kit were obtained from Beyotime Biotechnology (Nantong, China). The total protein extraction kit was from BestBio (Shanghai, China). The CM5 sensor chip was obtained from GE Healthcare Life Sciences (Uppsala, Sweden). Purified recombinant human VEGFR-2 and NRP-1 receptor proteins were purchased from R&D Systems (Minneapolis, MN, USA). Recombinant human endothelial growth factor-A165 (VEGF-A165) was obtained from PeproTech (Rocky Hill, NJ, USA). Anti-ERK1/2, anti-p-ERK1/2, anti-p-VEGFR-2, anti-AKT, anti-p-AKT, anti-p-SRC, anti-p-FAK, anti-p38 MAPK, anti-p-p38 MAPK, anti-p-PLC-γ, and anti-GAPDH antibodies were purchased from Cell Signaling Technology (Danvers, MA, USA). Anti-VEGFR-2, anti-FAK, and anti-SRC were purchased from Proteintech Group, Inc (Wuhan, China). F-12K medium, heparin, and endothelial cell growth supplement (ECGS) were from Macgene (Beijing, China). DMEM medium and fetal bovine serum (FBS) were obtained from Gibco®, Life Technologies (Carlsbad, CA, USA). […]

[1] = test system: intracranial U87-mCherry-luc glioma; experiment: In vivo anti-glioma study (bioluminescence); set-up: species or system nude mice; details: 20 mg/kg/day i.v. (tail vein), 11 days; days 4, 7, 11, 14; n = 5
Protocol: The orthotopic U87-mCherry-luc glioma-bearing nude mice were randomly assigned to 6 groups (n = 5) according to the bioluminescence intensity of glioma measured on day 4. […] The bioluminescence intensity was measured on days 4, 7, 11, and 14, respectively. Nude mice were weighed daily. On day 15, the mice were sacrificed, and the glioma-bearing brains were harvested. The brain tissues were fixed with 4.0% paraformaldehyde, embedded in paraffin, and cut into slices. The TUNEL staining and CD31 immunohistochemical staining were conducted according to standard histological procedures.

HUVECs = experiment: Annexin V-FITC/PI staining, flow cytometry (apoptosis); format: cell-based, human; details: 320 μmol/L, 24 h
Protocol: HUVECs were seeded into 6-well culture plates (3 × 10^5 cells/well). […] After discarding the supernatant and washing with cold PBS, the cells were fixed in 4% paraformaldehyde and stained with Hoechst 33,258 for 10 min. Then, the cells were washed with cold PBS and observed using an inverted fluorescence microscope. HUVECs were treated with different peptides (the methods were the same as the Hoechst staining). After 24 h, cells were collected by trypsin digestion and washed with PBS. Annexin V-FITC/PI staining was conducted according to the manufacturer’s instructions for the Apoptosis Detection Kit. Briefly, 195 μL of Annexin V-FITC/PI dilution buffer was added to resuspend the cells. Then, 5 μL of Annexin V-FITC and 10 μL of PI staining solutions were added and gently mixed with the cells. After incubation at room temperature in the dark for 10 min, the apoptotic cells were detected by flow cytometry.

NRP-1 [2] = details: peptide 1000 nmol/L; VEGF-A165 0.5-8 nmol/L; CM5 chip; HBS-EP
Protocol: The SPR assay was performed using the Biacore S200 instrument (GE Healthcare, Uppsala, Sweden). Firstly, the CM5 sensor chip was activated with EDC/NHS. Then, the recombinant VEGFR-2 and NRP-1 proteins were immobilized on the surface of the sensor chip according to the operating instructions of amine coupling. VEGF-A165 was diluted to 8, 4, 2, 1, and 0.5 nmol/L in different concentrations of peptide solution dissolved by HBS-EP buffer (0, 0.016, 0.064, 0.256, and 1 μmol/L, respectively). The Kinetics/Affinity program was selected, and the automatic continuous injection program was set. The injection flow rate was 30 μL/min, the injection time was 120 s, and the dissociation time was 220 s. At the same time, zero-concentration injection wells and 0.5 nmol/L repeat-concentration injection wells of VEGF-A165 were set. At the end of each injection, the channels were flushed with glycine-HCl solution for 30 s until response values were returned to baseline.

red blood cells = experiment: Hemolysis assay; details: 2.5–640 μmol/L; 37 °C, 1 h; 540 nm; mouse red blood cells; n = 3
Protocol: The fresh blood of mice was centrifuged at 2000 r/min for 10 min, and the upper layer of serum was discarded, then mixed with normal saline and centrifuged at 2000 r/min for 10 min, repeated three times, and the supernatant was removed to obtain the lower layer of red blood cells. Then, 1 mL of red blood cells was diluted to 50 mL with normal saline. […] The samples were incubated at 37 °C for 1 h, centrifuged at 2000 r/min for 10 min, and photographed. Light absorption of samples was measured at 540 nm on a microplate reader.
Cell hemolysis rate (%) = (OD experimental group − negative control group)/(OD positive control group − negative control group) × 100%.

[3] = test system: zebrafish embryo intersegmental vessel; experiment: Zebrafish embryo intersegmental vessel angiogenesis; format: in vivo; details: 25 µmol/L; 24 h; 28 °C; fluorescence microscope; vs control; n = 3
Protocol: After a certain period, healthy, sexually mature female and male zebrafish were mated in a 1:1 ratio. After 24 h, the fertilized eggs were removed, disinfected, and washed, and then placed in embryo culture water and cultured in an incubator at 28 °C for 24 h. The fertilized eggs were washed with chain enzyme protease E solution (1 mg/mL) to remove the egg membrane on the surface and placed under a microscope to observe and select the normally developing zebrafish embryos, and then placed into a 24-well plate. […] The control group was added with the same volume of embryo culture water, and then placed in an incubator at 28 °C for 24 h. Zebrafish embryos were randomly removed from each group and observed under a fluorescence microscope. The total length of zebrafish internode vessels was calculated and counted.

NRP-1 [4] = test system: NRP-1; set-up: method as in 2 sources, ref 21 = [21]; PMID 17983687; doi:10.1016/j.peptides.2007.09.013; 21. Starzec A. Ladam P. Vassy R. Badache S. Bouchemal N. Navaza A. du Penhoat C.H. Perret G.Y. Structure-function analysis of the antiangiogenic ATWLPPR peptide inhibiting VEGF (165) binding to neurop ||| ref 36 = [36]; PMID 11327725; doi:10.1006/bbrc.2001.4790; 36. Jia H. Lohr M. Jezequel S. Davis D. Shaikh S. Selwood D. Zachary I. Cysteine-rich and basic domain HIV-1 Tat peptides inhibit angiogenesis and induce endothelial cell apoptosis Biochem. Biophys. R; details: cited from earlier work

Compound: N=C(N)NCCC[C@H](NC(=O)[C@H](CCCNC(=N)N)NC(=O)[C@H](CCCNC(=N)N)NC(=O)[C@H](CCC(N)=O)NC(=O)[C@H](CCCNC(=N)N)NC(=O)[C@H](CCCNC(=N)N)NC(=O)[C@H](CCCCN)NC(=O)[C@H](CCCCN)NC(=O)[C@@H](N)CCCNC(=N)N)C(=O)O [TAT, reference compound]
- effect on VEGF-A165 and VEGFR-2 binding (RU) (VEGFR-2): less inhibitory effects on VEGF-A165 and VEGFR-2 binding than TAT-AT7
- glioma growth (bioluminescence) [1]: no significant difference compared to the control group
- induction of apoptosis (HUVECs; Hoechst and Annexin V-FITC/PI staining): no obvious effect of promoting apoptosis
- total apoptotic rate (Q1-UR and Q1-LR) (HUVECs; mean ± SD, n = 3, control (7.17 ± 1.42)%): 8.94 ± 3.52%
- inhibition of binding of VEGF-A165 and NRP-1 (NRP-1 [2]): displayed inhibitory effects on the binding of VEGF-A165 and NRP-1, but it did not completely inhibit the binding
- hemolysis (red blood cells): did not cause obvious hemolysis
- hemolysis rate (red blood cells): lower than 5%
- intersegmental vascular growth [3]: no obvious effect on intersegmental vascular growth

Compound: KKRRQRRRPPQG [HIV-1 Tat-derived peptide]
- disturbing the cross-linking of VEGF to NRP-1 (NRP-1 [4]): displayed potency in disturbing the cross-linking of VEGF to NRP-1

Compound: KRRQRRRPPQGNQAHQDPLP [HIV-1 Tat-derived peptide]
- disturbing the cross-linking of VEGF to NRP-1 (NRP-1 [4]): displayed potency in disturbing the cross-linking of VEGF to NRP-1

Compound: SYGRKKRRQRRR [HIV-1 Tat-derived peptide]
- disturbing the cross-linking of VEGF to NRP-1 (NRP-1 [4]): displayed potency in disturbing the cross-linking of VEGF to NRP-1
